In ChEMBL document CHEMBL3822398, “Design, synthesis and in vitro biological evaluation of short-chain C12-sphinganine and its 1,2,3-triazole analogs as potential antimicrobial and anti-biofilm agents” (Eur J Med Chem, 2016):
Values after ≈ are worked out from the molar mass of the structure shown. Active and inactive are the calls of the source. The calls are words filed in the database; no cut-off is given here.

How the values were obtained:
Candida albicans [1] = assay: Fungicidal activity against Candida albicans MTCC 3958 incubated for 24 hrs; assay type: functional; conditions: MTCC 3958, 24 h
Staphylococcus aureus [2] = assay: Bactericidal activity against Staphylococcus aureus MTCC 96 incubated for 24 hrs; assay type: functional; conditions: MTCC 96, 24 h
Pseudomonas aeruginosa = assay: Antibacterial activity against Pseudomonas aeruginosa MTCC 2453 incubated for 24 hrs at 37 degC by well diffusion method; assay type: functional; conditions: MTCC 2453, 24 h
Candida albicans [3] = assay: Antifungal activity against Candida albicans MTCC 3017 incubated for 24 hrs at 30 degC by well diffusion method; assay type: functional; conditions: MTCC 3017, 24 h
Staphylococcus aureus [4] = assay: Bactericidal activity against Staphylococcus aureus MLS16 MTCC 2940 incubated for 24 hrs; assay type: functional; conditions: MLS16 MTCC 2940, 24 h
Candida parapsilosis [5] = assay: Fungicidal activity against Candida parapsilosis MTCC 1744 incubated for 24 hrs; assay type: functional; conditions: Lodderomyces parapsilosis, MTCC 1744, 24 h
Candida albicans [6] = assay: Fungicidal activity against Candida albicans MTCC 227 incubated for 24 hrs; assay type: functional; conditions: MTCC 227, 24 h
Escherichia coli [7] = assay: Bactericidal activity against Escherichia coli MTCC 739 incubated for 24 hrs; assay type: functional; conditions: MTCC 739, 24 h
Candida albicans [8] = assay: Antifungal activity against Candida albicans MTCC 227 incubated for 24 hrs at 30 degC by well diffusion method; assay type: functional; conditions: MTCC 227, 24 h
Staphylococcus aureus [9] = assay: Antibiofilm activity against Staphylococcus aureus MTCC 96 after 24 hrs by crystal violet staining based assay; assay type: functional, organism-based; conditions: MTCC 96, 24 h
Escherichia coli [10] = assay: Antibacterial activity against Escherichia coli MTCC 739 incubated for 24 hrs at 37 degC by well diffusion method; assay type: functional; conditions: MTCC 739, 24 h
Pichia kudriavzevii [11] = assay: Fungicidal activity against Candida krusei MTCC 3020 incubated for 24 hrs; assay type: functional; conditions: MTCC 3020, 24 h
Bacillus subtilis [12] = assay: Antibacterial activity against Bacillus subtilis MTCC 121 incubated for 24 hrs at 37 degC by well diffusion method; assay type: functional; conditions: MTCC 121, 24 h
Candida albicans [13] = assay: Fungicidal activity against Candida albicans MTCC 3017 incubated for 24 hrs; assay type: functional; conditions: MTCC 3017, 24 h
Candida albicans [14] = assay: Fungicidal activity against Candida albicans MTCC 3018 incubated for 24 hrs; assay type: functional; conditions: MTCC 3018, 24 h
Bacillus subtilis [15] = assay: Bactericidal activity against Bacillus subtilis MTCC 121 incubated for 24 hrs; assay type: functional; conditions: MTCC 121, 24 h
Staphylococcus aureus [16] = assay: Antibacterial activity against Staphylococcus aureus MTCC 96 incubated for 24 hrs at 37 degC by well diffusion method; assay type: functional; conditions: MTCC 96, 24 h
Candida albicans [17] = assay: Antifungal activity against Candida albicans MTCC 183 incubated for 24 hrs at 30 degC by well diffusion method; assay type: functional; conditions: MTCC 183, 24 h
Raoultella planticola [18] = assay: Bactericidal activity against Klebsiella planticola MTCC 530 incubated for 24 hrs; assay type: functional; conditions: MTCC 530, 24 h
Raoultella planticola [19] = assay: Antibacterial activity against Klebsiella planticola MTCC 530 incubated for 24 hrs at 37 degC by well diffusion method; assay type: functional; conditions: MTCC 530, 24 h
Micrococcus luteus [20] = assay: Antibiofilm activity against Micrococcus luteus MTCC 2470 after 24 hrs by crystal violet staining based assay; assay type: functional, organism-based; conditions: MTCC 2470, 24 h
Micrococcus luteus [21] = assay: Bactericidal activity against Micrococcus luteus MTCC 2470 incubated for 24 hrs; assay type: functional; conditions: MTCC 2470, 24 h
Candida albicans [22] = assay: Antifungal activity against Candida albicans MTCC 1637 incubated for 24 hrs at 30 degC by well diffusion method; assay type: functional; conditions: MTCC 1637, 24 h
[Candida] aaseri [23] = Fungicidal activity against Candida aaseri MTCC 1962 incubated for 24 hrs; assay type: functional; conditions: Yamadazyma aaseri, MTCC 1962, 24 h
Staphylococcus aureus [24] = assay: Antibacterial activity against Staphylococcus aureus MLS16 MTCC 2940 incubated for 24 hrs at 37 degC by well diffusion method; assay type: functional; conditions: MLS16 MTCC 2940, 24 h
Candida albicans [25] = assay: Antifungal activity against Candida albicans MTCC 7315 incubated for 24 hrs at 30 degC by well diffusion method; assay type: functional; conditions: MTCC 7315, 24 h
Candida albicans [26] = assay: Antifungal activity against Candida albicans MTCC 4748 incubated for 24 hrs at 30 degC by well diffusion method; assay type: functional; conditions: MTCC 4748, 24 h
Candida albicans [27] = assay: Fungicidal activity against Candida albicans MTCC 7315 incubated for 24 hrs; assay type: functional; conditions: MTCC 7315, 24 h
Pichia kudriavzevii [28] = assay: Antifungal activity against Candida krusei MTCC 3020 incubated for 24 hrs at 30 degC by well diffusion method; assay type: functional; conditions: MTCC 3020, 24 h
Candida albicans [29] = assay: Antifungal activity against Candida albicans MTCC 3018 incubated for 24 hrs at 30 degC by well diffusion method; assay type: functional; conditions: MTCC 3018, 24 h
Candida albicans [30] = assay: Antibiofilm activity against Candida albicans MTCC 227 after 24 hrs by crystal violet staining based assay; assay type: functional, organism-based; conditions: MTCC 227, 24 h
Candida albicans [31] = assay: Antifungal activity against Candida albicans MTCC 3958 incubated for 24 hrs at 30 degC by well diffusion method; assay type: functional; conditions: MTCC 3958, 24 h
[Candida] aaseri [32] = Antifungal activity against Candida aaseri MTCC 1962 incubated for 24 hrs at 30 degC by well diffusion method; assay type: functional; conditions: Yamadazyma aaseri, MTCC 1962, 24 h
Candida albicans [33] = assay: Fungicidal activity against Candida albicans MTCC 4748 incubated for 24 hrs; assay type: functional; conditions: MTCC 4748, 24 h
Candida albicans [34] = assay: Fungicidal activity against Candida albicans MTCC 1637 incubated for 24 hrs; assay type: functional; conditions: MTCC 1637, 24 h
Candida albicans [35] = assay: Fungicidal activity against Candida albicans MTCC 854 incubated for 24 hrs; assay type: functional; conditions: MTCC 854, 24 h
Pichia sporocuriosa [36] = assay: Antifungal activity against Issatchenkia hanoiensis MTCC 4755 incubated for 24 hrs at 30 degC by well diffusion method; assay type: functional; conditions: MTCC 4755, 24 h
Candida parapsilosis [37] = assay: Antifungal activity against Candida parapsilosis MTCC 1744 incubated for 24 hrs at 30 degC by well diffusion method; assay type: functional; conditions: Lodderomyces parapsilosis, MTCC 1744, 24 h
Candida albicans [38] = assay: Fungicidal activity against Candida albicans MTCC 183 incubated for 24 hrs; assay type: functional; conditions: MTCC 183, 24 h
Micrococcus luteus [39] = assay: Antibacterial activity against Micrococcus luteus MTCC 2470 incubated for 24 hrs at 37 degC by well diffusion method; assay type: functional; conditions: MTCC 2470, 24 h
Pichia sporocuriosa [40] = assay: Fungicidal activity against Issatchenkia hanoiensis MTCC 4755 incubated for 24 hrs; assay type: functional; conditions: MTCC 4755, 24 h
Candida albicans [41] = assay: Antifungal activity against Candida albicans MTCC 854 incubated for 24 hrs at 30 degC by well diffusion method; assay type: functional; conditions: MTCC 854, 24 h
Candida albicans [42] = assay: Induction of ROS accumulation in Candida albicans MTCC 227 sessile cells at 2 to 8 ug/ml incubated for 24 hrs by DCFH-DA dye based microplate reader analysis; assay type: functional, organism-based
Nakaseomyces glabratus [43] = assay: Fungicidal activity against Candida glabrata MTCC 3019 incubated for 24 hrs; assay type: functional; conditions: MTCC 3019, 24 h
Nakaseomyces glabratus [44] = assay: Antifungal activity against Candida glabrata MTCC 3019 incubated for 24 hrs at 30 degC by well diffusion method; assay type: functional; conditions: MTCC 3019, 24 h

CCCCCCCCC[C@@H](O)[C@H](CO)n1cc(-c2cccc(O)c2)nn1
MFC (Candida albicans [1]): 31.2 µg/mL (≈ 86.3 µM) | MBC (Staphylococcus aureus [2]): 7.8 µg/mL (≈ 21.6 µM) | MIC (Pseudomonas aeruginosa): > 250 µg/mL | MIC (Candida albicans [3]): 7.8 µg/mL (≈ 21.6 µM) | MBC (Staphylococcus aureus [4]): 15.6 µg/mL (≈ 43.2 µM) | MFC (Candida parapsilosis [5]): 15.6 µg/mL (≈ 43.2 µM) | MFC (Candida albicans [6]): 3.9 µg/mL (≈ 10.8 µM) | MBC (Escherichia coli [7]): > 250 µg/mL | MIC (Candida albicans [8]): 3.9 µg/mL (≈ 10.8 µM) | IC50 (Staphylococcus aureus [9]): 2.9 µg/mL (≈ 8.02 µM) | MIC (Escherichia coli [10]): > 250 µg/mL | MFC (Pichia kudriavzevii [11]): 31.2 µg/mL (≈ 86.3 µM) | MIC (Bacillus subtilis [12]): 7.8 µg/mL (≈ 21.6 µM) | MFC (Candida albicans [13]): 7.8 µg/mL (≈ 21.6 µM) | MFC (Candida albicans [14]): 15.6 µg/mL (≈ 43.2 µM) | MBC (Bacillus subtilis [15]): 15.6 µg/mL (≈ 43.2 µM) | MIC (Staphylococcus aureus [16]): 7.8 µg/mL (≈ 21.6 µM) | MIC (Candida albicans [17]): 7.8 µg/mL (≈ 21.6 µM) | MBC (Raoultella planticola [18]): 15.6 µg/mL (≈ 43.2 µM) | MIC (Raoultella planticola [19]): 15.6 µg/mL (≈ 43.2 µM) | IC50 (Micrococcus luteus [20]): 2.1 µg/mL (≈ 5.81 µM) | MBC (Micrococcus luteus [21]): 3.9 µg/mL (≈ 10.8 µM) | MIC (Candida albicans [22]): 15.6 µg/mL (≈ 43.2 µM) | MFC ([Candida] aaseri [23]): 15.6 µg/mL (≈ 43.2 µM) | MIC (Staphylococcus aureus [24]): 7.8 µg/mL (≈ 21.6 µM) | MIC (Candida albicans [25]): 31.2 µg/mL (≈ 86.3 µM) | MIC (Candida albicans [26]): 7.8 µg/mL (≈ 21.6 µM) | MFC (Candida albicans [27]): 31.2 µg/mL (≈ 86.3 µM) | MIC (Pichia kudriavzevii [28]): 15.6 µg/mL (≈ 43.2 µM) | MIC (Candida albicans [29]): 7.8 µg/mL (≈ 21.6 µM) | IC50 (Candida albicans [30]): 1.9 µg/mL (≈ 5.26 µM) | MIC (Candida albicans [31]): 15.6 µg/mL (≈ 43.2 µM) | MIC ([Candida] aaseri [32]): 7.8 µg/mL (≈ 21.6 µM) | MFC (Candida albicans [33]): 15.6 µg/mL (≈ 43.2 µM) | MFC (Candida albicans [34]): 15.6 µg/mL (≈ 43.2 µM) | MFC (Candida albicans [35]): 7.8 µg/mL (≈ 21.6 µM) | MIC (Pichia sporocuriosa [36]): 7.8 µg/mL (≈ 21.6 µM) | MIC (Candida parapsilosis [37]): 15.6 µg/mL (≈ 43.2 µM) | MFC (Candida albicans [38]): 15.6 µg/mL (≈ 43.2 µM) | MIC (Micrococcus luteus [39]): 3.9 µg/mL (≈ 10.8 µM) | MFC (Pichia sporocuriosa [40]): 7.8 µg/mL (≈ 21.6 µM) | MIC (Candida albicans [41]): 3.9 µg/mL (≈ 10.8 µM) | Activity (Candida albicans [42]): Active | MFC (Nakaseomyces glabratus [43]): 7.8 µg/mL (≈ 21.6 µM) | MIC (Nakaseomyces glabratus [44]): 7.8 µg/mL (≈ 21.6 µM)
